Data from US20250101023A1, “HETEROARYL DERIVATIVE AND USES THEREOF” (IUCF-HYU (INDUSTRY-UNIVERSITY COOPERATION FOUNDATION …, priority 2022, published 2025).

Tests used:
MARK4 = MARK4 (Homo sapiens (Human), UniProt Q96L34); test: Kinome-wide profiling; assay type: biochemical; details: read-out: % Residual Activity (mean)
FGFR3 = FGFR3 (Homo sapiens (Human), UniProt P22607); test: Kinome-wide profiling; assay type: biochemical; details: read-out: % Residual Activity (mean)
HIPK3 = HIPK3 (Homo sapiens (Human), UniProt Q9H422); test: Kinome-wide profiling; assay type: biochemical; details: read-out: % Residual Activity (mean)
Chain of HIPK3 (Q9H422 whole entry): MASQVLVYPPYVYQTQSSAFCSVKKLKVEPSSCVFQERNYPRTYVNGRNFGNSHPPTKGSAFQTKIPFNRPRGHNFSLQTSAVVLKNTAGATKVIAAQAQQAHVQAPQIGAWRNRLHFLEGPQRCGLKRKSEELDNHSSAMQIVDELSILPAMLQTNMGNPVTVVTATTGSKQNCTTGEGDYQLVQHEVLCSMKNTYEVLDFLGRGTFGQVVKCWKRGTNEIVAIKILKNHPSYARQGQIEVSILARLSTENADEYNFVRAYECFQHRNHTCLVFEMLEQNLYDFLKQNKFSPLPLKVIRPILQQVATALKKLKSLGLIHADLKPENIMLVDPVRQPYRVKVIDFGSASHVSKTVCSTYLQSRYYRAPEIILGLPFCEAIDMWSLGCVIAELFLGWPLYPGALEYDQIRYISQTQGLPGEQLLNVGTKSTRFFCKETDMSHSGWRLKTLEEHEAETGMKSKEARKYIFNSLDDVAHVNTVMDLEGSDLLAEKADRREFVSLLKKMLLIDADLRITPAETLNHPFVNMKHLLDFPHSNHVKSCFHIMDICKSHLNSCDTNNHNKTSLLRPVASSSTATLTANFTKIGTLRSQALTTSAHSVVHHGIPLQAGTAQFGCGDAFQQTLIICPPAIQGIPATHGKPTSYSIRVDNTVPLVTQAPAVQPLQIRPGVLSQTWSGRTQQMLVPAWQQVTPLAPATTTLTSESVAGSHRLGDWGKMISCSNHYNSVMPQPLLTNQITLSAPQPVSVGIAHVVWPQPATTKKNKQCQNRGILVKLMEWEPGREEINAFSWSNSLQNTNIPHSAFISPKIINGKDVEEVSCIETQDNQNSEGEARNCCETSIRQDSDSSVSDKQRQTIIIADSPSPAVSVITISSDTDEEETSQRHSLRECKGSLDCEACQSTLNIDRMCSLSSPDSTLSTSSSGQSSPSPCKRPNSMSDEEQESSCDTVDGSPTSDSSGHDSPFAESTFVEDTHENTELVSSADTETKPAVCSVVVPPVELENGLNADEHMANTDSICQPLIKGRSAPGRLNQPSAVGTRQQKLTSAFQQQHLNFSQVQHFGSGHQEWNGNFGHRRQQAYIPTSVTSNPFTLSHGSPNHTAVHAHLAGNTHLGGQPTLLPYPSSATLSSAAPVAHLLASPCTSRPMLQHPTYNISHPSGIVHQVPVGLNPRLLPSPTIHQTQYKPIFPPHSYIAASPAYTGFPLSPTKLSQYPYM

MNK1 = MNK1 (Homo sapiens (Human), UniProt Q9BUB5); test: Kinome-wide profiling; assay type: biochemical; details: read-out: % Residual Activity (mean)
NEK7 = NEK7 (Homo sapiens (Human), UniProt Q8TDX7); test: Kinome-wide profiling; assay type: biochemical; details: read-out: % Residual Activity (mean)
Chain of NEK7 (Q8TDX7 whole entry): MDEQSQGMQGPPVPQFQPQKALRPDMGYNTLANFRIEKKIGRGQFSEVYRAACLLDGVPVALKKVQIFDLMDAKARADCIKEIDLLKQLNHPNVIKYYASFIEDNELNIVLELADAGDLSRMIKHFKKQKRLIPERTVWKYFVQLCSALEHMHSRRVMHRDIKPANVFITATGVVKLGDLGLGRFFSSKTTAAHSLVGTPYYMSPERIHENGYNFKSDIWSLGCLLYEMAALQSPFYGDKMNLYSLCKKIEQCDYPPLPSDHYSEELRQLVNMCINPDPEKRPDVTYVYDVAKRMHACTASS

JNK1 = JNK1 (Homo sapiens (Human), UniProt P45983); test: Kinome-wide profiling; assay type: biochemical; details: read-out: % Residual Activity (mean)
c-Kit = c-Kit (Homo sapiens (Human), UniProt P10721); test: Kinome-wide profiling; assay type: biochemical; details: read-out: % Residual Activity (mean)
PIM2 = PIM2 (Homo sapiens (Human), UniProt Q9P1W9); test: Kinome-wide profiling; assay type: biochemical; details: read-out: % Residual Activity (mean)
CK1g1 = CK1g1 (Homo sapiens (Human), UniProt Q9HCP0); test: Kinome-wide profiling; assay type: biochemical; details: read-out: % Residual Activity (mean)
EPHA6 = EPHA6 (Homo sapiens (Human), UniProt Q9UF33); test: Kinome-wide profiling; assay type: biochemical; details: read-out: % Residual Activity (mean)
MST2/STK3 = MST2/STK3 (Homo sapiens (Human), UniProt Q13188); test: Kinome-wide profiling; assay type: biochemical; details: read-out: % Residual Activity (mean)
LIMK2 = LIMK2 (Homo sapiens (Human), UniProt P53671); test: Kinome-wide profiling; assay type: biochemical; details: read-out: % Residual Activity (mean)
Chain of LIMK2 (P53671 whole entry): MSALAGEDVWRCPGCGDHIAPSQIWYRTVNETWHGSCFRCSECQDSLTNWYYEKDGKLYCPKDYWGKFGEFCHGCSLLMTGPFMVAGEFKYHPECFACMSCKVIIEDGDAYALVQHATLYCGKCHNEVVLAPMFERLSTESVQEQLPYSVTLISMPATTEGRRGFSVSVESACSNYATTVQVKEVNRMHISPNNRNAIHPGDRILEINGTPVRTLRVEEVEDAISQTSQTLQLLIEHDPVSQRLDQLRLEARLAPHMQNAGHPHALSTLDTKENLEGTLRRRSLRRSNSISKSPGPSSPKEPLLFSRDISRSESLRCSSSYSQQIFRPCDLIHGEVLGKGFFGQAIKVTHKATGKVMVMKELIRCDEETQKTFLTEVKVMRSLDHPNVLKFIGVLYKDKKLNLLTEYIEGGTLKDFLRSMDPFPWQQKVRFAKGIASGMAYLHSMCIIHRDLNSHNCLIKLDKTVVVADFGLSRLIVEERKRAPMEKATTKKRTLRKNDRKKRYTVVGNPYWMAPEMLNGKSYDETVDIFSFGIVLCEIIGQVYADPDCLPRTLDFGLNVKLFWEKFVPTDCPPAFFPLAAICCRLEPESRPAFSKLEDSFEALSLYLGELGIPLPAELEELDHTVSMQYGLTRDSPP

CDK5/p35 = CDK5/p35 (Homo sapiens (Human), UniProt Q00535); test: Kinome-wide profiling; assay type: biochemical; details: read-out: % Residual Activity (mean)
SK-Br3 and HCC1954 cells = test: Combined treatment with trastuzumab; assay type: cell-based; details: 40 nM Example 53 with trastuzumab titration, 72 hours
Excerpt: The effect of combined administration was investigated in SK-Br3 and HCC1954 cells.

STK38/NDR1 = STK38/NDR1 (Homo sapiens (Human), UniProt Q15208); test: Kinome-wide profiling; assay type: biochemical; details: read-out: % Residual Activity (mean)
LIMK1 = LIMK1 (Homo sapiens (Human), UniProt P53667); test: Kinome-wide profiling; assay type: biochemical; details: read-out: % Residual Activity (mean)
Chain of LIMK1 (P53667 whole entry): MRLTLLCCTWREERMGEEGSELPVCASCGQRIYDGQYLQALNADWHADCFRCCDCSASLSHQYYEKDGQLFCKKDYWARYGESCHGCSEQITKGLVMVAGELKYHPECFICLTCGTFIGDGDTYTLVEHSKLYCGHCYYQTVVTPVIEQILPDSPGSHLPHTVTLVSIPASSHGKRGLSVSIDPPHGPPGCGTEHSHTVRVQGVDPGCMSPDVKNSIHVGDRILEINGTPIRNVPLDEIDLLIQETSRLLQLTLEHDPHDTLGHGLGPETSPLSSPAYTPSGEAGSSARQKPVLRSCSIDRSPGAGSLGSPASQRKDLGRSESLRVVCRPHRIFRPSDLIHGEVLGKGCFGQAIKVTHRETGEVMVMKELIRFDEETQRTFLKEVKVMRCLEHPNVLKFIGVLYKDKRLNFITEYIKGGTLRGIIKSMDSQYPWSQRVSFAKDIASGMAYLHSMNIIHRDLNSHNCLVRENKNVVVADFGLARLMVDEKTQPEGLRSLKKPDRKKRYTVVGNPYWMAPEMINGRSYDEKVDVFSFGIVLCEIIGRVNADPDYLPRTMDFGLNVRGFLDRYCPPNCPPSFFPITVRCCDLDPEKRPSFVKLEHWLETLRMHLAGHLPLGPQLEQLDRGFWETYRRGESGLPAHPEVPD

KHS/MAP4K5 = KHS/MAP4K5 (Homo sapiens (Human), UniProt Q9Y4K4); test: Kinome-wide profiling; assay type: biochemical; details: read-out: % Residual Activity (mean)
PAK5 = PAK5 (Homo sapiens (Human), UniProt Q9P286); test: Kinome-wide profiling; assay type: biochemical; details: read-out: % Residual Activity (mean)
TRKC = TRKC (Homo sapiens (Human), UniProt Q16288); test: Kinome-wide profiling; assay type: biochemical; details: read-out: % Residual Activity (mean)
WNK3 = WNK3 (Homo sapiens (Human), UniProt Q9BYP7); test: Kinome-wide profiling; assay type: biochemical; details: read-out: % Residual Activity (mean)
DRAK1/STK17A = DRAK1/STK17A (Homo sapiens (Human), UniProt Q9UEE5); test: Kinome-wide profiling; assay type: biochemical; details: read-out: % Residual Activity (mean)
Chain of DRAK1/STK17A (Q9UEE5 whole entry): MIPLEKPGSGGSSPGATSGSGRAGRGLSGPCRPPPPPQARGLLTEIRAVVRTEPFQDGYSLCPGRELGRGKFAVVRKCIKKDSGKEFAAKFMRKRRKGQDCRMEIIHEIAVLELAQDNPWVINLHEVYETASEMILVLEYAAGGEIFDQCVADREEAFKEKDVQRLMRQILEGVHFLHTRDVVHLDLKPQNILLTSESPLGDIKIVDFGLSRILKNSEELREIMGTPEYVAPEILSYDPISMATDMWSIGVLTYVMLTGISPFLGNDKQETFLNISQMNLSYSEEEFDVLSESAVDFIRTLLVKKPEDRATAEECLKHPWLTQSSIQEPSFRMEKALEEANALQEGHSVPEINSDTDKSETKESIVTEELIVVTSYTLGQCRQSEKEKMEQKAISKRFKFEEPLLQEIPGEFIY

ROCK1 = ROCK1 (Homo sapiens (Human), UniProt Q13464); test: Kinome-wide profiling; assay type: biochemical; details: read-out: % Residual Activity (mean)
CDK3/cyclin E = CDK3/cyclin E (Homo sapiens (Human), UniProt Q00526); test: Kinome-wide profiling; assay type: biochemical; details: read-out: % Residual Activity (mean)
Chain of CDK3/cyclin E (Q00526 whole entry): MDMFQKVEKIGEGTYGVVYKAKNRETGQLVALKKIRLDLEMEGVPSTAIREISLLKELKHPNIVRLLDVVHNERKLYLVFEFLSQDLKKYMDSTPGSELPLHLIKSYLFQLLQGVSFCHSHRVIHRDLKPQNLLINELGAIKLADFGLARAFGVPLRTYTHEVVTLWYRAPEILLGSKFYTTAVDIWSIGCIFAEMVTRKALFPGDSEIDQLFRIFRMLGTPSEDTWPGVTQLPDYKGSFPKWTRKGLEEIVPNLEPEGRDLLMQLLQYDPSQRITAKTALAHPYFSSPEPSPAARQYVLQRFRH
Chain of CDK3/cyclin E (P24864 whole entry partner): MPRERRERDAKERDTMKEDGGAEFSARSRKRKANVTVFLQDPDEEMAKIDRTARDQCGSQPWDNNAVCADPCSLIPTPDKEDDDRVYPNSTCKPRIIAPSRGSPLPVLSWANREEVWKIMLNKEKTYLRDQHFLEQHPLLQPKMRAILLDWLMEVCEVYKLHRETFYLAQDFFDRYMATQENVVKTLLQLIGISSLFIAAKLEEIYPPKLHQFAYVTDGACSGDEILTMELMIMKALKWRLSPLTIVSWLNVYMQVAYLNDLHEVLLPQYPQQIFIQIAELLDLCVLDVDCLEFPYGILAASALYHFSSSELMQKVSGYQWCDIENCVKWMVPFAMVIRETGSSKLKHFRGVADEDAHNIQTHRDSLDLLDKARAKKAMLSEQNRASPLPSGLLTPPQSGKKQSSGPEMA

MARK1 = MARK1 (Homo sapiens (Human), UniProt Q9P0L2); test: Kinome-wide profiling; assay type: biochemical; details: read-out: % Residual Activity (mean)
ARK5/NUAK1 = ARK5/NUAK1 (Homo sapiens (Human), UniProt O60285); test: Kinome-wide profiling; assay type: biochemical; details: read-out: % Residual Activity (mean)
EPHB4 = EPHB4 (Homo sapiens (Human), UniProt P54760); test: Kinome-wide profiling; assay type: biochemical; details: read-out: % Residual Activity (mean)
Chain of EPHB4 (P54760 16-987): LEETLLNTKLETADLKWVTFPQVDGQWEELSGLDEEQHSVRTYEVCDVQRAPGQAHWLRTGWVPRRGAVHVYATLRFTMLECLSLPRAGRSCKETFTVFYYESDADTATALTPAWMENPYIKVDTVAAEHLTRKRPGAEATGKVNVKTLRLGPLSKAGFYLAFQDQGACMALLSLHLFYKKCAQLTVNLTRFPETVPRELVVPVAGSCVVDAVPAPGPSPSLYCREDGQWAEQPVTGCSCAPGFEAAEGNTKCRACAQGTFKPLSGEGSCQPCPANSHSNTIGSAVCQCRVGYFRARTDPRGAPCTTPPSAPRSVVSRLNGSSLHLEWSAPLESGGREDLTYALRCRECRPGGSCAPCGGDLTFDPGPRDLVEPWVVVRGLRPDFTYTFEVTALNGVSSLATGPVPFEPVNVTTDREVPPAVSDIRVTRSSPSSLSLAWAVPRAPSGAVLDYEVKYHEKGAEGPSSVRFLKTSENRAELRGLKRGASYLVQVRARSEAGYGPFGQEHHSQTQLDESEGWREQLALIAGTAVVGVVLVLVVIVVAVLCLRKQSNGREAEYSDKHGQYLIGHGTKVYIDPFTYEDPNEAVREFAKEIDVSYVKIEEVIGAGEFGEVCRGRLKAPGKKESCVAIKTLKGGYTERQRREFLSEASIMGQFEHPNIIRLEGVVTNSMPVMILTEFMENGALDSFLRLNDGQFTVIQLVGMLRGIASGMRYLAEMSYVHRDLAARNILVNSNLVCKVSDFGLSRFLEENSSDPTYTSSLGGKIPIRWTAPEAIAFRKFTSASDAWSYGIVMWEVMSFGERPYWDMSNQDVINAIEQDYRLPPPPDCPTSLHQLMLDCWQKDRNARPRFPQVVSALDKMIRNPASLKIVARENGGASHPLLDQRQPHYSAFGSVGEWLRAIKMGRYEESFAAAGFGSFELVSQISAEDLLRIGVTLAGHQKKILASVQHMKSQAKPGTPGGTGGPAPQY

TAOK3/JIK = TAOK3/JIK (Homo sapiens (Human), UniProt Q9H2K8); test: Kinome-wide profiling; assay type: biochemical; details: read-out: % Residual Activity (mean)
STK39/STLK3 = STK39/STLK3 (Homo sapiens (Human), UniProt Q9UEW8); test: Kinome-wide profiling; assay type: biochemical; details: read-out: % Residual Activity (mean)
PAK6 = PAK6 (Homo sapiens (Human), UniProt Q9NQU5); test: Kinome-wide profiling; assay type: biochemical; details: read-out: % Residual Activity (mean)
DYRK1B = DYRK1B (Homo sapiens (Human), UniProt Q9Y463); test: Kinome-wide profiling; assay type: biochemical; details: read-out: % Residual Activity (mean)
SIK2 = SIK2 (Homo sapiens (Human), UniProt Q9H0K1); test: Kinome-wide profiling; assay type: biochemical; details: read-out: % Residual Activity (mean)
MYO3b = MYO3b (Homo sapiens (Human), UniProt Q8WXR4); test: Kinome-wide profiling; assay type: biochemical; details: read-out: % Residual Activity (mean)
CAMK4 = CAMK4 (Homo sapiens (Human), UniProt Q16566); test: Kinome-wide profiling; assay type: biochemical; details: read-out: % Residual Activity (mean)
MLK2/MAP3K10 = MLK2/MAP3K10 (Homo sapiens (Human), UniProt Q02779); test: Kinome-wide profiling; assay type: biochemical; details: read-out: % Residual Activity (mean)
PKN2/PRK2 = PKN2/PRK2 (Homo sapiens (Human), UniProt Q16513); test: Kinome-wide profiling; assay type: biochemical; details: read-out: % Residual Activity (mean)
IRAK2 = IRAK2 (Homo sapiens (Human), UniProt O43187); test: Kinome-wide profiling; assay type: biochemical; details: read-out: % Residual Activity (mean)
CDK7/cyclin H = CDK7/cyclin H (Homo sapiens (Human), UniProt P50613); test: Kinome-wide profiling; assay type: biochemical; details: read-out: % Residual Activity (mean)
NLK = NLK (Homo sapiens (Human), UniProt Q9UBE8); test: Kinome-wide profiling; assay type: biochemical; details: read-out: % Residual Activity (mean)

`CCn1cnc2c(NCc3ccc(-c4ccccn4)nc3)nc(-c3ccc(N)nc3)nc21` [Example 53, N-([2,2′-bipyridin]-5-ylmethyl)-2-(6-aminopyridin-3-yl)-9-ethyl-9H-purin-6-amine] was tested, and the remaining activity at 10 µM (MARK4) was 66.9%, the remaining activity at 10 µM (FGFR3) was 30.6% and the remaining activity at 10 µM (HIPK3) was 94.1%. It also gave a remaining activity at 10 µM (MNK1) of 89.2%, a remaining activity at 10 µM (NEK7) of 93.2% and a remaining activity at 10 µM (JNK1) of 41.6%. The remaining activity at 10 µM (c-Kit) was 14.2%, the remaining activity at 10 µM (PIM2) was 93.8% and the remaining activity at 10 µM (CK1g1) was 22.9%. It also gave a remaining activity at 10 µM (EPHA6) of 3.04%, a remaining activity at 10 µM (MST2/STK3) of 53.5% and a remaining activity at 10 µM (LIMK2) of 76.5%. The remaining activity at 10 µM (CDK5/p35) was 0.67%, the “anti-proliferative activity of trastuzumab on co-treatment” value (SK-Br3 and HCC1954 cells) was “slightly enhanced” and the “anti-proliferative activity of trastuzumab on co-treatment” value (SK-Br3 and HCC1954 cells; listed as Compound 53) was “slightly increased”. It also gave a remaining activity at 10 µM (STK38/NDR1) of 28.3%, a remaining activity at 10 µM (LIMK1) of 59.9% and a remaining activity at 10 µM (KHS/MAP4K5) of 88.3%. It also gave a remaining activity at 10 µM (PAK5) of 7.55%, a remaining activity at 10 µM (TRKC) of 54.9% and a remaining activity at 10 µM (WNK3) of 74.5%. For the same molecule, the remaining activity at 10 µM (DRAK1/STK17A) was 79.3%, the remaining activity at 10 µM (ROCK1) was 97.2% and the remaining activity at 10 µM (CDK3/cyclin E) was 0.99%. It also gave a remaining activity at 10 µM (MARK1) of 81.5%, a remaining activity at 10 µM (ARK5/NUAK1) of 20.8% and a remaining activity at 10 µM (EPHB4) of 23.2%. For the same molecule, the remaining activity at 10 µM (TAOK3/JIK) was 23.1%, the remaining activity at 10 µM (STK39/STLK3) was 29.6% and the remaining activity at 10 µM (PAK6) was 57.2%. For the same molecule, the remaining activity at 10 µM (DYRK1B) was 3.19%, the remaining activity at 10 µM (SIK2) was 35.9% and the remaining activity at 10 µM (MYO3b) was 68.1%. It also gave a remaining activity at 10 µM (CAMK4) of 95.2%, a remaining activity at 10 µM (MLK2/MAP3K10) of 62.3% and a remaining activity at 10 µM (PKN2/PRK2) of 85.8%. For the same molecule, the remaining activity at 10 µM (IRAK2) was 97.5%, the remaining activity at 10 µM (CDK7/cyclin H) was 3.81% and the remaining activity at 10 µM (NLK) was 24.8%.
